From ChEMBL document CHEMBL1128988, “The antiinfluenza activity of pyrrolo[2,3-d]pyrimidines” (Bioorg Med Chem Lett, 1996)

Key:
Influenza A virus = assay: In vitro antiinfluenza activity against influenza virus A strain; type: functional, organism-based
Influenza B virus = assay: In vitro antiinfluenza activity against influenza virus B strain; type: functional, organism-based
[1] = Lethal dose against mice upon oral administration; type: toxicity; conditions: mouse, in vivo
[2] = Lethal dose against mice upon intraperitoneal administration; type: toxicity; conditions: mouse, in vivo, ip

| Structure (SMILES) | IC50 (Influenza A virus) | IC50 (Influenza B virus) | LD50 [1] | LD50 [2] |
| --- | --- | --- | --- | --- |
| Cc1nc(NCCc2cccc(N3CCCC3)c2)c2cc[nH]c2n1 | 23.9 µM | – | – | – |
| Cc1nc(NCc2cccc(N3CCCC3)c2)c2cc[nH]c2n1 | 4.8 µM | 6.4 µM | – | – |
| Cc1nc(NCCc2cccc(N3CCCCC3)c2)c2cc[nH]c2n1 | 28.6 µM | – | – | – |
| Cc1nc2nccc-2c(NCCc2cccc(N(C)C)c2)[nH]1 | 55 µM | – | – | – |
| Cc1nc(NCc2cccc(N3CCCCC3)c2)c2cc[nH]c2n1 | 2.3 µM | 5.1 µM | > 500 mg/kg | > 500 mg/kg |
| Cc1nc2nccc-2c(NCc2cccc(N(C)C)c2)[nH]1 | 18 µM | < 100 µM | – | – |
| Cc1nc(NCCc2ccccc2)c2cc[nH]c2n1 | 38.4 µM | – | – | – |
| NC12CC3CC(CC(C3)C1)C2 [AMANTADINE] | 1.25 µM | – | – | – |
| Cc1nc(NCc2ccccc2)c2cc[nH]c2n1 [ROLODINE] | > 100 µM | – | – | – |
